Like-named read-outs stand apart in the source and are kept apart here.
Columns and labels:
[1] = test system: patients with advanced RCC (aRCC); test: Phase 3 clinical trial of avelumab in combination with axitinib versus sunitinib (NCT02684006); type: in vivo, human
Experimental: Patients will be stratified according to ECOG performance status (0 versus 1) and LDH (>1.5 ULN vs. ≤1.5 ULN). In arm A (avelumab in combination with axitinib), avelumab will be given as a 1 hour intravenous infusion (IV) every 2 weeks in a 6-week cycle. Axitinib will be given orally (PO) twice daily (BID), with or without food, on a continuous dosing schedule.
Axitinib treatment may be adjusted by dosing interruption with or without dose reduction. Intrapatient axitinib dose escalation may occur if the intrapatient escalation criteria are met.
Study Treatment: Axitinib will be given orally twice daily PO on a continuous daily dosing schedule. Avelumab will be given as a 1 hour intravenous infusion every 2 weeks in a 6-week cycle.
Tumor Assessments: Anti-tumor activity will be assessed by radiological tumor assessments and will be based on RECIST guidelines version 1.1 for primary and secondary endpoints and on immune-related RECIST (irRECIST) guidelines for exploratory endpoints. Tumor assessments will be performed every 6 weeks (Q6W) up to 1 year from first dose therapy; thereafter, tumor assessments will be performed every 2 cycles. […]

[2] = test system: patients with advanced renal cell carcinoma
Description: Transcript levels were quantitated by the Personalis ACE Cancer Transciptome Analysis pipeline which uses STAR version 2.4.2a-p1 to align reads to the NCBI hs37d5 annotation 105 reference genome and produces Transcripts Per Million (TPM) values for each gene. TPM values were log2 transformed for further analysis.
Weighted Gene Co-Expression Network Analysis (WGCNA) was used to find co-expressed modules in the 720 baseline transcriptomic samples. […] The soft power of 6 was chosen based on goodness of fit to a scale-free network. A signed WGCNA network was constructed in R^37 with mergeCutHeight set to 0.25 and reassignThreshold set to 0. After removing non-coding genes and modules with size <10, 25 modules were identified. Gene signature scores were computed from the average expression of genes in a module. Univariate Cox Proportional Hazards (Cox PH) model was used to assess the dependence of PFS on each gene signature, which was categorized into high vs low groups according to median signature score. Multivariate analysis was also carried out adjusting for age and sex. Modules were annotated through identifying top enriched gene sets via hypergeometric tests using public gene set collections including the MSigDB Hallmark, GO Biological Process and LM22.
To assess the robustness of identified gene modules, next was carried out a consensus WGCNA analysis. […] The soft power of 6 was chosen based on goodness of fit to a scale-free network. 720 baseline data were randomly subsampled down to 80% of samples for 1,000 times. With each subsampled dataset, we constructed a co-expression network using the WGCNA procedure as described above. An adjacency matrix was constructed by counting the frequencies two genes were clustered into the same network module. A consensus network was then constructed using the new adjacency matrix via the standard WGCNA approach. Edges were then filtered by adjacency measure of 0.8. Modules with size <10 were removed. Consensus WGCNA identified 23 modules. Hypergeometric tests were then carried out to annotate modules as described above.
To refine the 306-gene immune response module, we selected genes annotated for immune-related functionality and had univariate Cox PH p-value <0.01 in the combination arm.

[3] = test system: patients with advanced renal cell carcinoma; test: CD8 immunohistochemistry study: PFS by number of CD8+ cells at the invasive margin in the phase 3 study; type: in vivo, human
Experimental: CD8 expression was assessed by immunohistochemistry using clone C8/144B and reported in terms of the number of CD8+ cells in relation to the total number of […] or at the invasive margin, with the median value as the cut point.

[4] = test system: patients with advanced renal cell carcinoma; remark: listed apart in the source
Experimental: Tumor samples were collected from patients in Example 2 and were subject to whole exome sequencing to identify genetic mutations. Software tools BWA and a combination of MuTect, Vardict, Picard, and other vendor tools were used.
The Cox proportional hazards (PH) regression model was used to assess the dependence of progression-free survival (PFS) on mutational status of each gene. In addition, multivariate analysis was also carried out adjusting for age, sex and tumor mutation burden. […] Genes were filtered based on the following criteria: • A. Mutated at 5% or more in the B9991003 cohort • B. Interaction term P-value<0.05 in both model (1) and model (2), testing for treatment specific differences of the mutations on survival outcome. • C.

[5] = in vivo; cited from earlier work
[6] = patients with CDL163L1 mutation
[7] = patients with CDL163L1 wild type
[8] = patients with LOC728763 mutation
[9] = patients with LOC728763 wild type
[10] = patients with SPATA31C2 mutation
[11] = patients with SPATA31C2 wild type

Question: For `CCN(CC)CCNC(=O)c1c(C)[nH]c(/C=C2\C(=O)Nc3ccc(F)cc32)c1C` [sunitinib], which patients had died ([1]; PD-L1-positive tumors, median follow-up for overall survival 11.6 and 10.7 months) is on record?
Answer: 44 patients

Question: What about the objective response rate ([1]; patients with PD-L1-positive tumors) of the same compound?
Answer: 25.5%

Question: What about the “median PFS” value ([2]; greater than median expression of JAVELIN Renal 101 Immuno Signature) of the same compound?
Answer: 8.3 months

Question: And the “median PFS” value ([2]; less than median expression of JAVELIN Renal 101 Immuno Signature)?
Answer: 9.0 months

Question: What about the “HR for PFS by tumor mutational burden (TMB)” value ([2]; within treatment arm) of the same compound?
Answer: 0.79

Question: What about the “HR for PFS, high expression of IMmotion 150 angiogenesis signature” value ([2]; within treatment arm) of the same compound?
Answer: 0.64

Question: And the “HR for PFS, high vs low JAVELIN Renal 101 Angiogenesis Signature” value ([2]; within treatment arm)?
Answer: 0.56

Question: And the “HR for PFS, high vs low JAVELIN Renal 101 Immuno Signature” value ([2]; within treatment arm)?
Answer: 0.98

Question: What about the “median PFS” value ([3]; high numbers of CD8+ cells at the invasive margin) of the same compound?
Answer: 7.1 months

Question: And the “median PFS” value ([3]; low numbers of CD8+ cells)?
Answer: 11.1 months

Question: And the “HR for PFS, high vs low numbers of CD8+ cells at the invasive margin” value ([3]; within treatment arm)?
Answer: 1.42

Question: What about the “Rate of PFS at 15 months” value ([4]; patients with ABCA1 mutation) of the same compound?
Answer: 25%

Question: What about the “Rate of PFS at 15 months” value ([4]; patients with ABCA1 wild type) of the same compound?
Answer: 25%

Question: What about the “Rate of PFS at 20 months” value ([4]; patients with ABCA1 wild type) of the same compound?
Answer: 25%

Question: And the “Rate of PFS at 15 months” value ([4]; patients with ARVCF mutation)?
Answer: 43%

Question: What about the “Rate of PFS at 20 months” value ([4]; patients with ARVCF mutation) of the same compound?
Answer: 39%

Question: What about the “Rate of PFS at 15 months” value ([4]; patients with ARVCF wild type) of the same compound?
Answer: 22%

Question: And the “Rate of PFS at 20 months” value ([4]; patients with ARVCF wild type)?
Answer: 22%

Question: And the “Rate of PFS at 15 months” value [4, 6]?
Answer: 15%

Question: And the “Rate of PFS at 20 months” value [4, 6]?
Answer: 15%

Question: What about the “Rate of PFS at 15 months” value [4, 7] of the same compound?
Answer: 25%

Question: What about the “Rate of PFS at 20 months” value [4, 7] of the same compound?
Answer: 25%

Question: What about the “Rate of PFS at 15 months” value ([4]; patients with DNMT1 mutation) of the same compound?
Answer: 0%

Question: And the “Rate of PFS at 20 months” value ([4]; patients with DNMT1 mutation)?
Answer: 0%

Question: And the “Rate of PFS at 15 months” value ([4]; patients with DNMT1 wild type)?
Answer: 25%

Question: What about the “Rate of PFS at 20 months” value ([4]; patients with DNMT1 wild type) of the same compound?
Answer: 25%

Question: What about the “Rate of PFS at 15 months” value ([4]; patients with FOXO1 mutation) of the same compound?
Answer: 10%

Question: What about the “Rate of PFS at 20 months” value ([4]; patients with FOXO1 mutation) of the same compound?
Answer: 10%

Question: And the “Rate of PFS at 15 months” value ([4]; patients with FOXO1 wild type)?
Answer: 25%

Question: And the “Rate of PFS at 20 months” value ([4]; patients with FOXO1 wild type)?
Answer: 25%

Question: And the “Rate of PFS at 15 months” value ([4]; patients with IL16 mutation)?
Answer: 25%

Question: What about the “Rate of PFS at 20 months” value ([4]; patients with IL16 mutation) of the same compound?
Answer: 25%

Question: And the “Rate of PFS at 15 months” value ([4]; patients with IL16 wild type)?
Answer: 23%

Question: What about the “Rate of PFS at 20 months” value ([4]; patients with IL16 wild type) of the same compound?
Answer: 23%

Question: What about the “Rate of PFS at 15 months” value [4, 8] of the same compound?
Answer: 25%

Question: And the “Rate of PFS at 20 months” value [4, 8]?
Answer: 25%

Question: What about the “Rate of PFS at 15 months” value [4, 9] of the same compound?
Answer: 23%

Question: What about the “Rate of PFS at 20 months” value [4, 9] of the same compound?
Answer: 23%

Question: And the “Rate of PFS at 15 months” value ([4]; patients with MCR1 mutation)?
Answer: 30%

Question: What about the “Rate of PFS at 15 months” value ([4]; patients with MCR1 wild type) of the same compound?
Answer: 30%

Question: What about the “Rate of PFS at 20 months” value ([4]; patients with MCR1 wild type) of the same compound?
Answer: 30%

Question: What about the “Rate of PFS at 15 months” value ([4]; patients with MYH7B mutation) of the same compound?
Answer: 10%

Question: What about the “Rate of PFS at 15 months” value ([4]; patients with MYH7B wild type) of the same compound?
Answer: 25%

Question: What about the “Rate of PFS at 20 months” value ([4]; patients with MYH7B wild type) of the same compound?
Answer: 25%

Question: And the “Rate of PFS at 15 months” value ([4]; patients with PTEN mutation)?
Answer: 20%

Question: And the “Rate of PFS at 15 months” value ([4]; patients with PTEN wild type)?
Answer: 25%

Question: And the “Rate of PFS at 20 months” value ([4]; patients with PTEN wild type)?
Answer: 25%

Question: And the “Rate of PFS at 15 months” value [4, 10]?
Answer: 25%

Question: What about the “Rate of PFS at 20 months” value [4, 10] of the same compound?
Answer: 25%

Question: And the “Rate of PFS at 15 months” value [4, 11]?
Answer: 23%

Question: What about the “Rate of PFS at 20 months” value [4, 11] of the same compound?
Answer: 23%

Question: What about the “Rate of PFS at 15 months” value ([4]; patients with STAB2 mutation) of the same compound?
Answer: 30%

Question: What about the “Rate of PFS at 20 months” value ([4]; patients with STAB2 mutation) of the same compound?
Answer: 30%

Question: And the “Rate of PFS at 15 months” value ([4]; patients with STAB2 wild type)?
Answer: 25%

Question: And the “Rate of PFS at 20 months” value ([4]; patients with STAB2 wild type)?
Answer: 25%

Question: With “avelumab: an anti-PD-L1 IgG1 monoclonal antibody” as the compound, how does the half-life [5] read?
Answer: 72 to 120 h
